Experimental data published in patent publication US20100144855A1, “APPLICATION OF SEDOISOPROSAN FOR PREPARATION OF MEDICINE FOR TREATMENT OF HUMAN HBeAg POSITIVE CHRONIC HEPATITIS B” (priority 2008, published 2010).

Test system: hepatitis B virus
Assay: clinical trial, curative effect in HBeAg positive chronic hepatitis B patients
Format: in vivo, human
Procedure: The clinical trial protocol was designed according to the randomized, double-blind and controlled principle. The clinical efficacy and the safety of sedoisoprosan for therapy on human HBeAg positive chronic hepatitis B is defined according to the changes of vivo HBV-DNA level, ALT level, vital signs, blood routine indexes, blood biochemical indexes and thyroid function indexes before and after administration and the incidence of adverse events.
The clinical trials were performed on adult chronic hepatitis B patients who were HBsAg positive, HBeAg positive and HBsAb negative, with HBV-DNA levels more than 10^5 copies/ml and increased ALT.
Patients enrolled in the clinical trials must meet all the following criteria: signature of informed consent forms; age ≧18 years and ≦65 years; HBsAg positive, HBeAg positive and HBsAb negative for over 6 months; HBV-DNA level ≧10^5 copies/ml; increase in serum ALT level in 6 months before the first administration (ULN<ALT≦10×ULN for twice, wherein ALT≧2×ULN for once); negative pregnancy tests for women of child-bearing age in 24 hours before the first administration; and effective contraception measures used during the clinical trials and within 3 months after the therapy.
Since the effective doses of sedoisoprosan for reducing serum DHBV-DNA levels of ducks infected with hepatitis B virus was 200 mg/kg and 100 mg/kg (intraperitoneal injection, twice a day), doses of sedoisoprosan for the clinical trials may be between 200 mg and 800 mg (intravenous drip, once a day). […] For the purpose of the present invention, three doses of sedoisoprosan, 200 mg, 400 mg and 800 mg in 250ml 5% glucose solution (intravenous drip, within 60 mins), were used in the clinical trials.
According to the traditional treatment for chronic hepatitis B with interferon, patients enrolled in the clinical trials were administrated with sedoisoprosan once a day continuously for 4 weeks, then 3 times a week continuously for 8 weeks.
Three doses of sedoisoprosan, 200 mg, 400 mg and 800 mg respectively, were used for treatment. Mannite of 800 mg was used for negative control.
Patients enrolled in the clinical trials were randomly divided into four groups, i.e. negative control group (800 mg mannite), low dose group (200 mg sedoisoprosan with 600 mg mannite), median dose group (400 mg sedoisoprosan with 400 mg mannite) and high dose group (800 mg sedoisoprosan) respectively. Each patient was assigned with a CRF No. which was randomly generated by computer.
Baseline assessment was performed on the day of the first administration, which included medical examination, hematological examination, blood biochemical examination, thyroid function examination, ALT examination and quantitative detection of HBV-DNA. The medical examination included the examination of stature, avoirdupois, blood pressure and pulse rate. The hematological examination included the leucocyte, neutrophil, erythrocyte, platelet and haemoglobin counts, and the prothrombin time. The blood biochemical examination included the examination of serum potassium, sodium, GOT, total bilirubin, AKP, total protein, albumin, total cholesterol, triglyceride, urea nitrogen, creatinine and glucose.
The patients were followed up at the 1st, 2nd, 4th, 8th and 12th week of the treatment. The blood biochemical examination and the quantitative detection of HBV-DNA was performed at the 2nd, 4th, 8th and 12th week of the treatment, and the adverse events were recorded at the same time. The thyroid function examination was performed at the 12th week of the treatment.
The primary curative effect index was the virologic response rate at the 12th week of the treatment, i.e. the proportion of patients having HBV-DNA levels not more than 2×10^4 copies/ml or having a decline in HBV-DNA levels of 2 log10 copies/ml compared to the baseline value. […]

[1] = high dose group (800 mg sedoisoprosan), after 12 weeks' treatment
[2] = high dose group, after 12 weeks' treatment
[3] = low dose group (200 mg sedoisoprosan with 600 mg mannite), after 12 weeks' treatment
[4] = median dose group (400 mg sedoisoprosan with 400 mg mannite), after 12 weeks' treatment

CC1(C)OC2C3COC(CO)(O3)C(O)C2O1 (centres unmarked) [sedoisoprosan, isopropylidene sedoheptulosan]
HBV-DNA levels, dose-effect relationship (200, 400, 800 mg, after 12 weeks' treatment): tended to decrease more as the doses increased
The 12th Week Decrease Values of lg(HBV-DNA), mean ± SD (high dose group (800 mg sedoisoprosan), 16 cases): 0.96 ± 1.41
Biochemical Response Rates [1]: 18.75%
Combined Response Rates [1]: 6.25%
HBeAg Negative Conversion Rates [1]: 6.25%
Virologic Response Rate (high dose group (800 mg sedoisoprosan), the 4th week, 16 cases): 0.00%
Virologic Response Rate (high dose group (800 mg sedoisoprosan), the 8th week, 16 cases): 12.50%
Virologic Response Rate (high dose group (800 mg sedoisoprosan), the 12th week, 16 cases): 18.75%
cases of HBeAg negative conversion [2]: one
decrease values of lg(HBV-DNA), comparison within the group [2]: significant differences
effect on hepatitis B virus (conclusion of the clinical trials) (human HBeAg positive chronic hepatitis B): effectively inhibit hepatitis B virus
The 12th Week Decrease Values of lg(HBV-DNA), mean ± SD (low dose group (200 mg sedoisoprosan with 600 mg mannite), 13 cases): 0.52 ± 1.28
Biochemical Response Rates [3]: 6.25%
Combined Response Rates [3]: 0%
HBeAg Negative Conversion Rates [3]: 0%
Virologic Response Rate (low dose group (200 mg sedoisoprosan with 600 mg mannite), the 4th week, 13 cases): 15.38%
Virologic Response Rate (low dose group (200 mg sedoisoprosan with 600 mg mannite), the 8th week, 13 cases): 15.38%
Virologic Response Rate (low dose group (200 mg sedoisoprosan with 600 mg mannite), the 12th week, 13 cases): 15.38%
The 12th Week Decrease Values of lg(HBV-DNA), mean ± SD (median dose group (400 mg sedoisoprosan with 400 mg mannite), 14 cases): 0.40 ± 0.90
Biochemical Response Rates [4]: 12.50%
Combined Response Rates [4]: 0%
HBeAg Negative Conversion Rates [4]: 0%
Virologic Response Rate (median dose group (400 mg sedoisoprosan with 400 mg mannite), the 4th week, 14 cases): 0.00%
Virologic Response Rate (median dose group (400 mg sedoisoprosan with 400 mg mannite), the 8th week, 14 cases): 0.00%
Virologic Response Rate (median dose group (400 mg sedoisoprosan with 400 mg mannite), the 12th week, 14 cases): 14.29%
decrease values of lg(HBV-DNA), comparison within the group (median dose group and low dose group, after 12 weeks' treatment): no significant differences
